This passage reports IC50 and inhibition results from ChEMBL document CHEMBL3352029, “Ring fusion strategy for the synthesis of anthra[2,3-d]oxazole-2-thione-5,10-dione homologues as DNA topoisomerase inhibitors and as antitumor agents” (Eur J Med Chem, 2014).

The structures appear in SMILES notation. Calls of active or inactive are those of the source. The rule behind the calls is not given here.

Assay [1] can be described thus: Cytotoxicity against human PC3 cells assessed as inhibition of cell growth after 48 hrs by sulforhodamine B assay. It is filed as functional, cell-based. Conditions: PC-3, 48 h. In general terms: In SRB staining, fixed cells bind dye roughly in proportion to their protein.
Assay [2] addresses T1, DNA topoisomerase 1 (Homo sapiens) (UniProt P11387).
T1 sequence (whole entry): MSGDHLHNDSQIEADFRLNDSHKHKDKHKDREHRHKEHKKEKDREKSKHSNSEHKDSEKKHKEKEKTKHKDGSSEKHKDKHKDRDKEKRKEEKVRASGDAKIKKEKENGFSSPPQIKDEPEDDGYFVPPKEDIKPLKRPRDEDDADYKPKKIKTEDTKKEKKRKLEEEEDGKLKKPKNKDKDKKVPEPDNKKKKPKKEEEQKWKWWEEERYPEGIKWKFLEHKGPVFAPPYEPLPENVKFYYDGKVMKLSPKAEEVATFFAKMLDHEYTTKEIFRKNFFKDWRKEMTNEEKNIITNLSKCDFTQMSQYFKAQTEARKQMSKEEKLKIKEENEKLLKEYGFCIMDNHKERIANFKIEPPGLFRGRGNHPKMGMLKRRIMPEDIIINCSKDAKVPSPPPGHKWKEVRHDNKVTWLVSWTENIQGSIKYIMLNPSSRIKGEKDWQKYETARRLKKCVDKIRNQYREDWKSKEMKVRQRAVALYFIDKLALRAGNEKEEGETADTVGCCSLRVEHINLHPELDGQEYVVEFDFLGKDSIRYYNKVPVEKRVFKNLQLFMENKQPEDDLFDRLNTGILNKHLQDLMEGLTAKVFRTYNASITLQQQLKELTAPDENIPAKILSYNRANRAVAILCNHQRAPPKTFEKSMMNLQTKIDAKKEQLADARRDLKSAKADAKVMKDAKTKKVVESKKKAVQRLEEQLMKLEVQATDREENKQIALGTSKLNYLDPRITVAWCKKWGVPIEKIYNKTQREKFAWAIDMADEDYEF
Kind of assay: Inhibition of human recombinant DNA topoisomerase 1 assessed as reduction in relaxation of supercoiled pHOT DNA at 25 to 50 uM incubated for 45 mins by ethidium bromide staining based gel electrophoresis.

The IC50 is the point on the concentration scale where inhibition reaches its midpoint. Consider `O=C1c2ccccc2C(=O)c2cc3oc(=S)[nH]c3cc21`, for which, in assay [1], the IC50 is more than 30 µM. Also, the inhibition result in assay [2] is “inactive”.

Take `O=C1c2ccccc2C(=O)c2cc3oc(SCCCN4CCCCC4)nc3cc21`: the IC50 in assay [1] amounted to 12.2 µM. Further, the inhibition result in assay [2] was “Active”.
